Data: publication PMC4997821, “The Lantibiotic NAI-107 Efficiently Rescues Drosophila melanogaster from Infection with Methicillin-Resistant Staphylococcus aureus USA300” (Antimicrobial Agents and Chemotherapy, 2016)
≈ marks a conversion by molar mass, not a printed value. Structures can show the parent of a compound that is named as a salt. Where two headings read alike, the source gives them in different places. Residues, ends and D or L forms follow the SMILES beside them.

Key:
Drosophila melanogaster [1] = assay: Adverse behavioral response (paralysis) after injection; type: in vivo; settings: flies injected with high concentrations (data not shown); uncoordinated movements, inability to walk or fly
Experimental: (§1) Injection assays were performed as previously described ([33]) by using a Nanoject-II microinjecter, but with minor modifications in the preparation of bacterial inoculums to obtain balanced cultures, as explained above. Flies were reared on standard Bloomington formulation at 25°C under a 12-h–12-h light-dark cycle and constant humidity. Adult Oregon R male flies (4 to 7 days old) were used for all injection experiments. Initial experiments with strain 8325-4 were performed in duplicate, with groups of 25 to 30 animals in each experiment. For USA300, experiments were performed in triplicate, except for the nisin experiment, which was done only in duplicate. The inoculum was prepared by resuspending cells in 10 mM MgSO4 vehicle (VEH) to an OD600 of 0.06 and was kept on ice, giving an inoculum dose of 100 to 450 CFU (8325-4) or 200 to 700 CFU (USA300) in the flies after injection of 18.4 nl. […] After injection of bacteria, flies were kept at 29°C and monitored for 48 to 96 h to determine mortality. […] It is important that when drug concentrations were calculated, we performed a rough approximation of the fluid content of a fly. Fly fluid content was measured by drying out 10 groups of 50 flies each and comparing dry weight to wet weight. […]

S. aureus 8325-4 [2] = assay: microbe, parasite or virus in culture; type: cell-based, Staphylococcus aureus
Experimental: (§2) S. aureus strains 8325-4 ([35]) and USA300 ([36]) were used as indicated for the individual experiments. Bacterial cultures were grown in cation-adjusted Mueller-Hinton broth (MHB-II) at the indicated temperature.
(§3) MICs of all tested compounds were determined according to protocols using broth microdilution methodology ([46]), with minor modifications. S. aureus was grown in 10 ml MHB-II overnight at 37°C with shaking and then diluted 1:100 in fresh MHB-II and grown to an OD600 of 0.2 to 0.4. Cultures were then diluted 1:10 and grown to an OD600 of 0.2 to 0.4. These steps were performed to ensure balanced exponentially growing cultures as explained above. Finally, cultures were diluted to 1 × 10^6 CFU ml^−1 and further diluted 1:1 in microtiter plates in MHB-II with drug, leading to a final inoculum of 5 × 10^5 CFU ml^−1. MICs were determined in triplicate, and if more than one value was found, the highest was set as the MIC to keep the calculations conservative.

Drosophila melanogaster [3] = assay: Survival of uninfected control flies injected with VEH and drug; type: in vivo
Experimental: Injection assays were performed as previously described ([33]) by using a Nanoject-II microinjecter, but with minor modifications in the preparation of bacterial inoculums to obtain balanced cultures, as explained above. Flies were reared on standard Bloomington formulation at 25°C under a 12-h–12-h light-dark cycle and constant humidity. Adult Oregon R male flies (4 to 7 days old) were used for all injection experiments. Initial experiments with strain 8325-4 were performed in duplicate, with groups of 25 to 30 animals in each experiment. For USA300, experiments were performed in triplicate, except for the nisin experiment, which was done only in duplicate. The inoculum was prepared by resuspending cells in 10 mM MgSO4 vehicle (VEH) to an OD600 of 0.06 and was kept on ice, giving an inoculum dose of 100 to 450 CFU (8325-4) or 200 to 700 CFU (USA300) in the flies after injection of 18.4 nl. Bacterial and VEH injections were administered in the soft tissue surrounding the front legs, and drug treatment was administered in the lower thorax at 3 h postinfection. After injection of bacteria, flies were kept at 29°C and monitored for 48 to 96 h to determine mortality. Drug delivery was performed at the concentrations indicated for individual experiments. Flies which died within 3 h postinjection were considered to have died from handling and were disregarded. It is important that when drug concentrations were calculated, we performed a rough approximation of the fluid content of a fly. Fly fluid content was measured by drying out 10 groups of 50 flies each and comparing dry weight to wet weight. […] For simplicity and because we assumed that the compounds would not be distributed to all fluids, we used 0.5 μl fluid as our measure for calculating drug concentrations in the flies. Further, we assumed a rapid distribution of the compound in the open circulatory system of Drosophila and a slow clearance of the compounds by Malpighian tubules. Therefore, drug concentrations are given as the highest concentrations obtained, in multiples of the MIC.
Plotting of data was performed using GraphPad Prism 5. All in vivo survival plots were created using Kaplan-Meier analysis of pooled data for repetitive experiments. Statistical analysis was carried out with the log rank (Mantel-Cox) test for comparison of survival curves. Experiments with P values of <0.05 were considered to be significant and are stated in Results. Statistical analysis was performed on the counts of CFU per fly for the different treatment groups by using one-way analysis of variance (ANOVA) (Kruskal-Wallis test) with Dunn's multiple-comparison test for comparison of individual groups. Relevant statistical results are stated in Results.

S. aureus 8325-4 [4] = assay: Drosophila injection assay, survival of infected flies; type: in vivo, Drosophila melanogaster; settings: >1,000× MIC, injection 3 h postinfection, 70-h period
Experimental: as §1

S. aureus USA300 = assay: Bacterial titers (CFU per fly) after treatment; type: in vivo, Drosophila melanogaster; settings: USA300-infected flies, treatment 3 h postinfection
Experimental: The growth rates of S. aureus strains were examined at 37°C in vitro to determine the growth period required to obtain balanced cultures, here defined as cultures grown exponentially for no fewer than 6 generations. Prior to injection of bacteria into the in vivo fly model, the inoculums were prepared as balanced cultures grown at 37°C. Since flies used for in vivo infections were kept at 29°C, the bacterial in vitro generation time was also determined at this temperature. In vitro growth rates were defined for growth in MHB-II by measurements of the optical density at 600 nm (OD600) at 10-min intervals. Furthermore, we determined the in vivo generation time based on CFU per animal by counting the CFU at various time points by homogenizing flies infected with bacteria and plating the homogenates on mannitol salt agar (MSA). This was performed in triplicate experiments; 3 individual flies were crushed in phosphate-buffered saline (PBS), and 10× dilution series were prepared, from which 10 μl each was spot plated on MSA in triplicate. The mean value for each experiment was determined as the number of CFU per fly and plotted. […] It should also be noted that drug treatment was performed at 3 h postinfection and that the number of CFU per fly for this time point was determined prior to treatment. […]

MRSA USA300 = assay: Drosophila injection assay, survival of infected flies; type: in vivo, Drosophila melanogaster; settings: 10× MIC, 3 h postinfection, 96-h period
Experimental: as §1

S. aureus USA300 (MRSA) = assay: MIC testing, broth microdilution; type: cell-based; settings: Staphylococcus aureus
Experimental: as §2, §3

[5] = broth microdilution, MHB-II, final inoculum 5 × 10^5 CFU ml^−1, triplicate, highest value set as MIC
[6] = calculated from MIC in μg ml^−1 with the mol wt of the table, read-out: MIC (μM) 8325-4
[7] = at the concentrations tested, not given
[8] = 8325-4, read-out: MIC (μM) 8325-4

Row | SMILES | Adverse behavioral response that may indicate neurotoxicity (Drosophila melanogaster [1]) | MIC (μg ml^−1) 8325-4 (S. aureus 8325-4 [2]; [5]) | MIC (S. aureus 8325-4 [2]; [6]) | Effect on survival of control animals (Drosophila melanogaster [3]; [7]) | MIC (μg ml^−1) 8325-4 (S. aureus 8325-4 [2]; 8325-4) | MIC (S. aureus 8325-4 [2]; [8]) | further results
1 | CC[C@H](C)[C@H](NC(=O)[C@H](Cc1c[nH]c2ccccc12)NC(=O)[C@H](CCCNC(=N)N)NC(=O)[C@H](Cc1c[nH]c2ccccc12)NC(=O)[C@H](Cc1c[nH]c2ccccc12)NC(=O)[C@H](CCCNC(=N)N)NC(=O)[C@H](CCCCN)NC(=O)[C@H](Cc1c[nH]c2ccccc12)NC(=O)[C@@H](N)CCCNC(=N)N)C(N)=O [GN-2] (H-RWKRWWRWI-NH2) | partially paralyzed for up to 10 h postinjection | 8 mg/L (≈ 5.44 µM) | 5.43 µM |  |  |  | 
2 | CC1(C)S[C@@H]2[C@H](NC(=O)[C@H](N)c3ccccc3)C(=O)N2[C@H]1C(=O)O [Ampicillin, Ampicillin sodium salt, reference compound] |  |  |  |  |  |  | Effect on survival of control animals (Drosophila melanogaster [3]; >1,000× MIC, 70-h period): no lethal effects on control animals; Effect on survival of 8325-4-infected flies (S. aureus 8325-4 [4]): efficiently promoted survival; MIC (S. aureus 8325-4 [2]; Staphylococcus aureus, 83254, broth microdilution, MHB-II, final inoculum 5 × 10^5 CFU ml^−1, triplicate, highest value set as MIC, read-out: MIC (μg ml^−1) 8325-4): 0.01 mg/L; MIC (S. aureus 8325-4 [2]; Staphylococcus aureus, 83254, calculated from MIC in μg ml^−1 with the mol wt of the table, read-out: MIC (μM) 8325-4): 2.86 µM
3 | CN[C@H](CC(C)C)C(=O)N[C@H]1C(=O)N[C@@H](CC(N)=O)C(=O)N[C@H]2C(=O)N[C@H]3C(=O)N[C@H](C(=O)N[C@H](C(=O)O)c4cc(O)cc(O)c4-c4cc3ccc4O)[C@H](O)c3ccc(c(Cl)c3)Oc3cc2cc(c3O[C@@H]2O[C@H](CO)[C@@H](O)[C@H](O)[C@H]2O[C@H]2C[C@](C)(N)[C@H](O)[C@H](C)O2)Oc2ccc(cc2Cl)[C@H]1O [Vancomycin, vancomycin hydrochloride] |  |  |  | no adverse effect on survival of control animals |  |  | Bacterial load compared to that with nisin treatment after 24 h (S. aureus USA300): significantly reduced the bacterial load; Proliferation of bacteria inside the animals (S. aureus USA300; CFU per fly at 0, 3, 12, 24 h on MSA): clearly disrupted the proliferation of bacteria; Survival of USA300-infected animals compared with NAI-107 at 100× MIC (MRSA USA300): equivalent; MIC (S. aureus USA300 (MRSA); read-out: MIC (μM) USA300): 1.38 µM; MIC (S. aureus USA300 (MRSA); read-out: MIC (μg ml^−1) USA300): 2 mg/L
4 | CC(C)C[C@H](NC(=O)[C@H](Cc1c[nH]c2ccccc12)NC(=O)[C@H](Cc1c[nH]c2ccccc12)NC(=O)[C@H](CCCCN)NC(=O)[C@H](Cc1c[nH]c2ccccc12)NC(=O)[C@H](CCCNC(=N)N)NC(=O)[C@H](CCCNC(=N)N)NC(=O)[C@H](Cc1c[nH]c2ccccc12)NC(=O)[C@@H](N)CCCNC(=N)N)C(N)=O [HHC-9] (H-RWRRWKWWL-NH2) |  |  |  | no obvious detrimental effects on survival | 4 mg/L (≈ 2.72 µM) | 2.71 µM | 
5 | CC(C)C[C@H](NC(=O)[C@H](Cc1c[nH]c2ccccc12)NC(=O)[C@H](CCCNC(=N)N)NC(=O)[C@H](Cc1c[nH]c2ccccc12)NC(=O)[C@H](Cc1c[nH]c2ccccc12)NC(=O)[C@H](CCCCN)NC(=O)[C@H](CCCCN)NC(=O)[C@H](Cc1c[nH]c2ccccc12)NC(=O)[C@@H](N)CCCNC(=N)N)C(N)=O [GN-4] (H-RWKKWWRWL-NH2) | partially paralyzed for up to 10 h postinjection | 4 mg/L (≈ 2.77 µM) | 2.77 µM |  |  |  | Effect on survival of control animals (Drosophila melanogaster [3]; 10× MIC in fly, compared with VEH-injected flies): no detrimental effects on survival of flies
6 | N=C(N)NCCC[C@H](NC(=O)[C@H](CCCNC(=N)N)NC(=O)[C@H](Cc1c[nH]c2ccccc12)NC(=O)[C@H](Cc1c[nH]c2ccccc12)NC(=O)[C@H](CCCCN)NC(=O)[C@H](Cc1c[nH]c2ccccc12)NC(=O)[C@H](Cc1c[nH]c2ccccc12)NC(=O)[C@H](CCCNC(=N)N)NC(=O)[C@@H](N)CCCCN)C(N)=O [HHC-36] (H-KRWWKWWRR-NH2) |  |  |  | no obvious detrimental effects on survival | 8 mg/L (≈ 5.38 µM) | 5.38 µM | 
